Source: PubChem BioAssay AID330 (DTP/NCI, 2004)
“And” between values parts separate entries of the source, which are not always exact repeats. Equal entries are not always repeated. Toxic doses and inconclusive results are not listed. Rule for the calls: active = survival T/C of 150% or more; inactive = T/C below 125% in these data.

Test system: P388 leukemia ip, CD2F1 mice, survival T/C
Experiment: NCI In Vivo Anticancer Drug Screen. Data for tumor model P388 Leukemia (intraperitoneal) in CD2F1 (CDF1) mice
Details: endpoint: median survival time, higher = longer survival
Method in brief: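 Mice carrying the transplanted tumor received test compound or vehicle. Survival was recorded in each group, and the value is the treated-group measurement divided by that of the vehicle-treated control group.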

[1] = dose: 50.0 mg/kg/injection, schedule: Q01DX005 (ip), vehicle: saline with Tween-80
[2] = dose: 200.0 mg/kg/injection, schedule: Q01DX005 (ip), vehicle: saline with Tween-80
[3] = dose: 50.0 mg/kg/injection, schedule: Q01DX009 (ip), vehicle: saline with Tween-80
[4] = dose: 100.0 mg/kg/injection, schedule: Q01DX009 (ip), vehicle: saline with Tween-80
[5] = dose: 200.0 mg/kg/injection, schedule: Q01DX009 (ip), vehicle: saline with Tween-80
[6] = dose: 60.0 mg/kg/injection, schedule: Q01DX005 (ip), vehicle: saline with Tween-80
[7] = dose: 120.0 mg/kg/injection, schedule: Q01DX005 (ip), vehicle: saline with Tween-80
[8] = dose: 240.0 mg/kg/injection, schedule: Q01DX005 (ip), vehicle: saline with Tween-80
[9] = dose: 100.0 mg/kg/injection, schedule: Q04DX003 (ip), vehicle: saline with Tween-80
[10] = dose: 200.0 mg/kg/injection, schedule: Q04DX003 (ip), vehicle: saline with Tween-80
[11] = dose: 400.0 mg/kg/injection, schedule: Q04DX003 (ip), vehicle: saline with Tween-80
[12] = dose: 60.0 mg/kg/injection, schedule: Q01DX005 (ip), vehicle: Klucel (hydroxypropylcellulose) (HPC)
[13] = dose: 120.0 mg/kg/injection, schedule: Q01DX005 (ip), vehicle: Klucel (hydroxypropylcellulose) (HPC)
[14] = dose: 240.0 mg/kg/injection, schedule: Q01DX005 (ip), vehicle: Klucel (hydroxypropylcellulose) (HPC)
[15] = dose: 100.0 mg/kg/injection, schedule: Q01DX001 (ip), vehicle: saline with Tween-80
[16] = dose: 200.0 mg/kg/injection, schedule: Q01DX001 (ip), vehicle: saline with Tween-80
[17] = dose: 400.0 mg/kg/injection, schedule: Q01DX001 (ip), vehicle: saline with Tween-80

Measured: T/C

N#CC1OC1c1ccc[n+]([O-])c1 (stereo not given)
inactive: dose: 1.56 mg/kg/injection, schedule: Q01DX005 (ip), vehicle: saline 94 % of control | dose: 3.12 mg/kg/injection, schedule: Q01DX005 (ip), vehicle: saline 105 % of control | dose: 6.25 mg/kg/injection, schedule: Q01DX005 (ip), vehicle: saline 100 % of control | dose: 12.5 mg/kg/injection, schedule: Q01DX005 (ip), vehicle: saline 101 % of control

Nc1nc2[nH]c(=O)[nH]c2c(=O)[nH]1
inactive: [1] 94 % of control | dose: 100.0 mg/kg/injection, schedule: Q01DX005 (ip), vehicle: saline with Tween-80 93 % of control | [2] 91 % of control

COc1cc(OC)c(NC(=O)O/N=C(\c2ccccc2)C(O)c2ccccc2)cc1Cl (stereo not given)
inactive: [3] 91 % of control | [4] 91 % of control | [5] 90 % of control

CCOC(=O)NC(=S)Nc1nonc1-c1ccccc1
inactive: [6] 96 % of control | [7] 100 % of control | [8] 97 % of control

CC(=O)N1c2ccccc2C23CCN4CC5=CCOC(O)C(C5CC42)C13 (stereo not given)
inactive: dose: 20.0 mg/kg/injection, schedule: Q01DX009 (ip), vehicle: Klucel (hydroxypropylcellulose) (HPC) 107 % of control | dose: 40.0 mg/kg/injection, schedule: Q01DX009 (ip), vehicle: Klucel (hydroxypropylcellulose) (HPC) 108 % of control | dose: 80.0 mg/kg/injection, schedule: Q01DX009 (ip), vehicle: Klucel (hydroxypropylcellulose) (HPC) 110 % of control | dose: 160.0 mg/kg/injection, schedule: Q01DX009 (ip), vehicle: Klucel (hydroxypropylcellulose) (HPC) 118 % of control

CCOC(=O)C(C)(C)CN(CC(C)(C)C(=O)OCC)C(C)(C)C
inactive: [9] 109 % of control | [10] 109 % of control | [11] 122 % of control

[CH3][Sn]([CH3])([Cl])[Cl].c1ccc(-c2nnc(-c3ccccn3)nc2-c2ccccc2)cc1
inactive: [12] 95 % of control | [13] 94 % of control | [14] 89 % of control

CCCCCCCCC1SC1CCCCCCCCOC(=O)CCCCCCCC1SC1CCCCCCCC (stereo not given)
inactive: [15] 95 % of control | [16] 95 % of control | [17] 95 % of control

C=CCNc1nc2c(s1)c(C)c(O)c1ccccc12
inactive: [6] 93 % of control | [7] 96 % of control | [8] 106 % of control

CC(C)c1nnc2cc3oc4ccccc4c3cc2c1N
inactive: dose: 6.25 mg/kg/injection, schedule: Q01DX005 (ip), vehicle: saline with Tween-80 100 % of control | dose: 12.5 mg/kg/injection, schedule: Q01DX005 (ip), vehicle: saline with Tween-80 96 % of control | dose: 25.0 mg/kg/injection, schedule: Q01DX005 (ip), vehicle: saline with Tween-80 106 % of control | [1] 106 % of control

COc1cc(Br)cc(OC)c1N
inactive: [3] 97 % of control | [4] 100 % of control | [5] 105 % of control

CCCCCCC1(O)OC(=O)C(C)=C1C (stereo not given)
inactive: dose: 12.5 mg/kg/injection, schedule: Q04DX003 (ip), vehicle: saline with Tween-80 110 % of control | dose: 25.0 mg/kg/injection, schedule: Q04DX003 (ip), vehicle: saline with Tween-80 94 % of control | dose: 50.0 mg/kg/injection, schedule: Q04DX003 (ip), vehicle: saline with Tween-80 94 % of control

C=C1[C@@H]2CC[C@@]3([C@@H](C2)[C@@]24CCC[C@@]5(C)CN(CCO)[C@@H]2O[C@@H]3C[C@H]54)[C@@H]1O
inactive: dose: 2.0 mg/kg/injection, schedule: Q01DX009 (ip), vehicle: Klucel (hydroxypropylcellulose) (HPC) 97 % of control | dose: 4.0 mg/kg/injection, schedule: Q01DX009 (ip), vehicle: Klucel (hydroxypropylcellulose) (HPC) 97 % of control | dose: 8.0 mg/kg/injection, schedule: Q01DX009 (ip), vehicle: Klucel (hydroxypropylcellulose) (HPC) 98 % of control | dose: 16.0 mg/kg/injection, schedule: Q01DX009 (ip), vehicle: Klucel (hydroxypropylcellulose) (HPC) 94 % of control

O=NNc1ncc(Sc2ccccc2)nc1Sc1ccccc1
inactive: dose: 6.25 mg/kg/injection, schedule: Q01DX009 (ip), vehicle: water 103 % of control | dose: 12.5 mg/kg/injection, schedule: Q01DX009 (ip), vehicle: water 113 % of control | dose: 25.0 mg/kg/injection, schedule: Q01DX009 (ip), vehicle: water 122 % of control | dose: 100.0 mg/kg/injection, schedule: Q01DX009 (ip), vehicle: water 106 % of control

O=C(O)c1ccccc1N=N/C(=N\Nc1ccccc1C(=O)O)c1cccc2cccnc12
inactive: [9] 103 % of control | [10] 106 % of control | [11] 97 % of control

CC1C(=O)N(C)C(=O)N(C2CCCCC2)C1=O (stereo not given)
inactive: [6] 104 % of control | [7] 104 % of control | [8] 101 % of control

NC(=O)C1CCCN1C(=O)C1CCCN(CCCCCCN2CCCC(C(=O)N3CCCC3C(N)=O)C2)C1 (stereo not given)
inactive: dose: 60.0 mg/kg/injection, schedule: Q01DX005 (ip), vehicle: saline 105 % of control | dose: 120.0 mg/kg/injection, schedule: Q01DX005 (ip), vehicle: saline 98 % of control

O=C(NC(Cc1ccc(Cl)cc1)C(=O)O)c1ccc(I)cc1 (stereo not given)
inactive: dose: 50.0 mg/kg/injection, schedule: Q01DX005 (ip), vehicle: Klucel (hydroxypropylcellulose) (HPC) 101 % of control | dose: 100.0 mg/kg/injection, schedule: Q01DX005 (ip), vehicle: Klucel (hydroxypropylcellulose) (HPC) 101 % of control | dose: 200.0 mg/kg/injection, schedule: Q01DX005 (ip), vehicle: Klucel (hydroxypropylcellulose) (HPC) 94 % of control

COc1cc(Br)c(CC(=O)c2ccc3c(c2)OCO3)cc1OC
inactive: [1] 86 % of control | [2] 87 % of control

CCCCCCCC1SCC(=O)N1c1nncs1 (stereo not given)
inactive: [6] 94 % of control | [7] 94 % of control | [8] 91 % of control

Cc1ccc(C)c(NC(=O)Nc2nccs2)c1
inactive: dose: 25.0 mg/kg/injection, schedule: Q01DX009 (ip), vehicle: Klucel (hydroxypropylcellulose) (HPC) 99 % of control | dose: 50.0 mg/kg/injection, schedule: Q01DX009 (ip), vehicle: Klucel (hydroxypropylcellulose) (HPC) 90 % of control | dose: 200.0 mg/kg/injection, schedule: Q01DX009 (ip), vehicle: Klucel (hydroxypropylcellulose) (HPC) 91 % of control

CC1(C)OC(C)(C)C(=N\O)/C1=N/N
inactive: [12] 102 % of control | [13] 102 % of control | [14] 106 % of control

O=C1CCCC(CCc2ccccc2)O1 (stereo not given)
inactive: [15] 100 % of control | [16] 101 % of control | [17] 100 % of control

C=C1CC[C@H]2C(C)=CC[C@H]3C(=C)C(=O)O[C@@H]3[C@@H]12
inactive: dose: 5.0 mg/kg/injection, schedule: Q01DX009 (ip), vehicle: saline with Tween-80 90 % of control | dose: 10.0 mg/kg/injection, schedule: Q01DX009 (ip), vehicle: saline with Tween-80 91 % of control | dose: 20.0 mg/kg/injection, schedule: Q01DX009 (ip), vehicle: saline with Tween-80 97 % of control | dose: 40.0 mg/kg/injection, schedule: Q01DX009 (ip), vehicle: saline with Tween-80 95 % of control | dose: 100.0 mg/kg/injection, schedule: Q04DX002 (ip), vehicle: saline with Tween-80 107 % of control | dose: 200.0 mg/kg/injection, schedule: Q04DX002 (ip), vehicle: saline with Tween-80 112 % of control | dose: 400.0 mg/kg/injection, schedule: Q04DX002 (ip), vehicle: saline with Tween-80 102 % of control

NC(=O)c1ncn(C2OC(CO)C(O)C2O)n1 (stereo not given)
inactive: dose: 10.0 mg/kg/injection, schedule: Q01DX009 (ip), vehicle: saline 99 % of control and 101 % of control | dose: 20.0 mg/kg/injection, schedule: Q01DX009 (ip), vehicle: saline 104 % of control | dose: 40.0 mg/kg/injection, schedule: Q01DX009 (ip), vehicle: saline 105 % of control and 106 % of control and 109 % of control | dose: 80.0 mg/kg/injection, schedule: Q01DX009 (ip), vehicle: saline 108 % of control and 112 % of control and 118 % of control | dose: 160.0 mg/kg/injection, schedule: Q01DX009 (ip), vehicle: saline 122 % of control | dose: 320.0 mg/kg/injection, schedule: Q01DX009 (ip), vehicle: saline 87 % of control
